Data from patent publication US8134015B2, “Compound inhibiting in vivo phosphorous transport and medicine containing the same” (Kyowa Hakko Kirin Co., Ltd., priority 2003, dated 2012).

Biological target: T1, rat NaPi-2b (Rattus norvegicus, UniProt Q9JJ09)
T1 construct: expressed in transfected cells; host or cells: Xenopus oocytes injected with cRNA
T1 sequence (Q9JJ09 1-695): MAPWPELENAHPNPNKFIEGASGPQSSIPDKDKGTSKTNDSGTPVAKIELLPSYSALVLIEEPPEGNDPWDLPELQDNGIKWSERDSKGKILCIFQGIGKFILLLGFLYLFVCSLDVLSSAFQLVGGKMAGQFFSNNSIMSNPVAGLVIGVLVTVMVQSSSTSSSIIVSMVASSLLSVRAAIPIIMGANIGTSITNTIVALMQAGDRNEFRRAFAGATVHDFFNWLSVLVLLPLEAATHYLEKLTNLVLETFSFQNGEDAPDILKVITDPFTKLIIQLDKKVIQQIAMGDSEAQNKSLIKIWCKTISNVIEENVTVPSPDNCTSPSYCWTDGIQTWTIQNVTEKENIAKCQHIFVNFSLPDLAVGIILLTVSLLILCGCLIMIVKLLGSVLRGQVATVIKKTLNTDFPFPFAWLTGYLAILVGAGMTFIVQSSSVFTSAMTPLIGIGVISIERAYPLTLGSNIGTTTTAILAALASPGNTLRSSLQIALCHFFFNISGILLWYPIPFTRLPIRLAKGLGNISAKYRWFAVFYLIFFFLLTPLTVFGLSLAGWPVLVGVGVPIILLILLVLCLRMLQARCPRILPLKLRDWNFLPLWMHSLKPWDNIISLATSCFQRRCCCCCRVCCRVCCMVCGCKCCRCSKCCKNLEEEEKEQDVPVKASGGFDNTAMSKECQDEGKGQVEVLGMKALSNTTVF
Assay: Sodium-dependent phosphate uptake of Xenopus oocytes which expressed NaPi-2b (32P)
Assay type: cell-based
Settings: for IC50: Xenopus oocytes expressing rat NaPi-2b, 32P radioactive phosphorus, read-out: IC50 (phosphate uptake inhibitory activity); for inhibition at 300 µM: phosphate uptake, oocytes expressing rat NaPi-2b, determined from inhibition curve
Outline: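 Percent inhibition at 300 μM and 100 μM comes from the same inhibition curve of 32P uptake. Assay used oocytes expressing rat NaPi-2b after 2 days of culture.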

Structure (SMILES) | IC50 [µM] | inhibition at 300 µM [%]
Cc1ccc(/C=N/NC(=O)c2cc(OCCN3CCCCC3)ccc2NC(=O)c2cccc(CSCCO)c2)cc1C [Compound 1043, N-[2-(3,4-Dimethyl-benzylidene-hydrazinocarbonyl)-4-(2-piperidin-1-yl-ethoxy)-phenyl]-3-(2-hydroxy-ethylsulfanylmethyl)-benzamide] | 8.26 | –
CCN(CC)CCN(C)Cc1cccc(C(=O)Nc2ccc(I)cc2C(=O)N/N=C/c2cccc(OC)c2)c1 [Compound 478, 3-{[(2-Diethylamino-ethyl)-methyl-amino]-methyl}-N-[4-iodo-2-(3-methoxy-benzylidene-hydrazinocarbonyl)-phenyl]-benzamide] | < 3 | –
Cc1csc(NC(=O)c2cccc(CN3CCC(O)CC3)c2)c1C(=O)N/N=C/c1ccc(Cl)c(C(F)(F)F)c1 [Compound 597, N-[3-(4-Chloro-3-trifluoromethyl-benzylidene-hydrazinocarbonyl)-4-methyl-thiophen-2-yl]-3-(4-hydroxy-piperidin-1-ylmethyl)-benzamide] | 1.47 | –
O=C(Nc1ccccc1C(=O)N/N=C/c1ccc(F)cc1)c1ccccn1 [Compound 506, Pyridin-2-carboxylic acid [2-(4-fluoro-benzylidene-hydrazinocarbonyl)-phenyl]-amide] | 19.5 | –
Cc1ccc(/C=N/NC(=O)c2ccsc2NC(=O)c2cccc(CN(CC(C)O)CC(C)O)c2)cc1C (centres unmarked) [Compound 670, 3-{[Bis-(2-hydroxy-propyl)-amino]-methyl}-N-[3-(3,4-dimethyl-benzylidene-hydrazinocarbonyl)-thiophen-2-yl]-benzamide] | – | 70.2
COc1ccc(/C=N/NC(=O)c2cc(Cl)ccc2NC(=O)c2ccc(OC)c(OC)c2)cc1OC [Compound 126, N-[4-Chloro-2-(3,4-dimethoxy-benzylidene-hydrazinocarbonyl)-phenyl]-3,4-dimethoxy-benzamide] | 6.43 | –
CN(CCO)Cc1cccc(C(=O)Nc2ccc(Cl)cc2C(=O)N/N=C/c2cccc(O)c2)c1 [Compound 402, N-[4-Chloro-2-(3-hydroxy-benzylidene-hydrazinocarbonyl)-phenyl]-3-{[(2-hydroxy-ethyl)-methyl-amino]-methyl}-benzamide] | 14.1 | –
Cc1cccc(/C=N/NC(=O)c2cc(Br)ccc2NC(=O)c2ccc(CSCCCO)cc2)c1 [Compound 275, N-[4-Bromo-2-(3-methyl-benzylidene-hydrazinocarbonyl)-phenyl]-4-(3-hydroxy-propylsulfanylmethyl)-benzamide] | 1.73 | –
COc1ccccc1/C=C/C=N/NC(=O)c1cc(Cl)ccc1NC(=O)c1cccnc1 [Compound 354, N-{4-Chloro-2-[3-(2-methoxy-phenyl)-allylidene-hydrazinocarbonyl]-phenyl}-nicotinamide] | 1.54 | –
Cc1csc(NC(=O)c2cccc(CN3CCC(O)CC3)c2)c1C(=O)N/N=C/c1cccc(F)c1 [Compound 596, N-[3-(3-Fluoro-benzylidene-hydrazinocarbonyl)-4-methyl-thiophen-2-yl]-3-(4-hydroxy-piperidin-1-ylmethyl)-benzamide] | 5.47 | –
CCN(CC)CCN(C)Cc1cccc(C(=O)Nc2ccc(OCCOCCOC)cc2C(=O)N/N=C/c2ccc(OC)cc2)c1 [Compound 1037, 3-{[(2-Diethylamino-ethyl)-methyl-amino]-methyl}-N-{2-(4-methoxy-benzylidene-hydrazinocarbonyl)-4-[2-(2-methoxy-ethoxy)-ethoxy]-phenyl}-benzamide] | 38.5 | –
CC(O)CN(Cc1cccc(C(=O)Nc2ccc(N3CCCCC3)cc2C(=O)NN=Cc2ccc(Cl)c(C(F)(F)F)c2)c1)CC(C)O (centres unmarked) [Compound 942, 3-{[Bis-(2-hydroxy-propyl)-amino]-methyl}-N-[2-(4-chloro-3-trifluoromethyl-benzylidene-hydrazinocarbonyl)-4-piperidin-1-yl-phenyl]-benzamide] | 0.2 | –
CCN(CC)CCN(C)Cc1cccc(C(=O)Nc2ccc(Cl)cc2C(=O)N/N=C/c2ccc(O)cc2)c1 [Compound 388, N-[4-Chloro-2-(4-hydroxy-benzylidene-hydrazinocarbonyl)-phenyl]-3-{[(2-diethylamino-ethyl)-methyl-amino]-methyl}-benzamide] | 19.7 | –
COc1ccc(C(=O)Nc2ccccc2C(=O)N/N=C/c2cccc(C#N)c2)cc1OC [Compound 9, N-[2-(3-Cyano-benzylidene-hydrazinocarbonyl)-phenyl]-3,4-dimethoxy-benzamide] | 4.26 | –
COc1ccc(C(=O)Nc2ccccc2C(=O)N/N=C/c2ccc(O)cc2O)cc1OC [Compound 25, N-[2-(2,4-Dihydroxy-benzylidene-hydrazinocarbonyl)-phenyl]-3,4-dimethoxy-benzamide] | 23.9 | –
CCN(CC)CCNCc1cccc(C(=O)Nc2c(C)csc2C(=O)N/N=C/c2ccc(C)cc2)c1 [Compound 537, 3-[(2-Diethylamino-ethylamino)-methyl]-N-[4-methyl-2-(4-methyl-benzylidene-hydrazinocarbonyl)-thiophen-3-yl]-benzamide] | – | 82

Results, then the compound that gave them:

IC50 [µM] | inhibition at 300 µM [%] | Structure (SMILES)
– | 85.8 | COc1cccc(/C=N/NC(=O)c2cc(Br)ccc2NC(=O)c2ccc(CNCCN3CCOCC3)cc2)c1 [Compound 716, N-[4-Bromo-2-(3-methoxy-benzylidene-hydrazinocarbonyl)-phenyl]-4-[(2-morpholin-4-yl-ethylamino)-methyl]-benzamide]
9.38 | – | COc1cccc(/C=N/NC(=O)c2cc(Cl)ccc2NC(=O)c2ccc(CN(C)CCO)cc2)c1 [Compound 418, N-[4-Chloro-2-(3-methoxy-benzylidene-hydrazinocarbonyl)-phenyl]-4-{[(2-hydroxy-ethyl)-methyl-amino]-methyl}-benzamide]
1.41 | – | COc1ccc(C(=O)Nc2ccccc2C(=O)N/N=C/c2cccc(F)c2)cc1OC [Compound 15, N-[2-(3-Fluoro-benzylidene-hydrazinocarbonyl)-phenyl]-3,4-dimethoxy-benzamide]
2.24 | – | O=C(Nc1ccc(N2CCCCC2)cc1C(=O)N/N=C/c1cccc(F)c1)c1cccc(CN2CCN(CCO)CC2)c1 [Compound 867, N-[2-(3-Fluoro-benzylidene-hydrazinocarbonyl)-4-piperidin-1-yl-phenyl]-3-[4-(2-hydroxy-ethyl)-piperazin-1-ylmethyl]-benzamide]
26.1 | – | Cc1cc(/C=N/NC(=O)c2ccccc2NC(=O)c2ccccc2F)ccc1O [Compound 45, 2-Fluoro-N-[2-(4-hydroxy-3-methyl-benzylidene-hydrazinocarbonyl)-phenyl]-benzamide]
17.4 | – | Cc1cccc(/C=N/NC(=O)c2cscc2NC(=O)c2cccc(CN(CC(C)O)CC(C)O)c2)c1 (centres unmarked) [Compound 975, 3-{[Bis-(2-hydroxy-propyl)-amino]-methyl}-N-[4-(3-methyl-benzylidene-hydrazinocarbonyl)-thiophen-3-yl]-benzamide]
0.9 | – | COc1ccc(C(=O)Nc2ccc(Br)cc2C(=O)N/N=C/c2ccc(C)cc2)cc1OC [Compound 62, N-[4-Bromo-2-(4-methyl-benzylidene-hydrazinocarbonyl)-phenyl]-3,4-dimethoxy-benzamide]
1.26 | – | Cc1csc(NC(=O)c2cccc(CSCCCO)c2)c1C(=O)N/N=C/c1ccc(F)cc1 [Compound 559, N-[3-(4-Fluoro-benzylidene-hydrazinocarbonyl)-4-methyl-thiophen-2-yl]-3-(3-hydroxy-propylsulfanylmethyl)-benzamide]
8.89 | – | COCCOc1cc(NC(=O)c2cccc(CSCC(O)CO)c2)c(C(=O)N/N=C/c2cccc(F)c2)cc1OCCOC (centres unmarked) [Compound 1013, 3-(2,3-Dihydroxy-propylsulfanylmethyl)-N-[2-(3-fluoro-benzylidene-hydrazinocarbonyl)-4,5-bis-(2-methoxy-ethoxy)-phenyl]-benzamide]
< 3 | – | COc1ccc(C(=O)Nc2ccc(N3CCOCC3)cc2C(=O)N/N=C/c2ccc(C)c(C)c2)cc1OC [Compound 939, N-[2-(3,4-Dimethyl-benzylidene-hydrazinocarbonyl)-4-morpholin-4-yl-phenyl]-3,4-dimethoxy-benzamide]
– | 85.1 | O=C(Nc1ccc(Cl)cc1C(=O)N/N=C/c1cccc(F)c1)c1cccc(CN(CCO)CCO)c1 [Compound 549, 3-{[Bis-(2-hydroxy-ethyl)-amino]-methyl}-N-[4-chloro-2-(3-fluoro-benzylidene-hydrazinocarbonyl)-phenyl]-benzamide]
7.43 | – | Cc1ccc(/C=N/NC(=O)c2cc(Cl)ccc2NC(=O)c2cccc(CSc3nnnn3CCN(C)C)c2)cc1 [Compound 465, N-[4-Chloro-2-(4-methyl-benzylidene-hydrazinocarbonyl)-phenyl]-3-[1-(2-dimethylamino-ethyl)-1H-tetrazol-5-ylsulfanylmethyl]-benzamide]
3.51 | – | CC(O)CN(Cc1ccc(C(=O)Nc2ccc(Br)cc2C(=O)N/N=C/c2cccc(F)c2)cc1)CC(C)O (centres unmarked) [Compound 720, 4-{[Bis-(2-hydroxy-propyl)-amino]-methyl}-N-[4-bromo-2-(3-fluoro-benzylidene-hydrazinocarbonyl)-phenyl]-benzamide]
